Data from patent US6946458B2, “N-thiolated beta-lactams: novel antibacterial agents for methicillin-resistant Staphylococcus aureus” (University of South Florida, priority 1999, dated 2005).
Like-named read-outs stand apart in the source and are kept apart here.

Experiments:
Assay type in all cases: cell-based, Staphylococcus aureus
MRSA USF652 = test: Kirby-Bauer agar disk diffusion; set-up: Kirby-Bauer Disc Diffusion Test Results: unit not given here; details: for Kirby-Bauer Disc Diffusion Test Results: Table 5, beta-lactamase producing strain; for zone of inhibition at 20 µg/disc: Staphylococcus aureus, MRSA
Method in brief: (§1)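 Test compound (20 μg) was impregnated onto 6-mm disks, air-dried and placed on agar plates inoculated with the β-lactamase-producing MRSA strain. After 24 h the diameter of the growth-inhibition zone was measured in mm. Reported values are triplicate means.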

MRSA USF653 = test: Kirby-Bauer agar disk diffusion; set-up: Kirby-Bauer Disc Diffusion Test Results: unit not given here; details: for Kirby-Bauer Disc Diffusion Test Results: Table 5, beta-lactamase producing strain; for zone of inhibition at 20 µg/disc: Staphylococcus aureus, MRSA
Method in brief: as §1

MRSA USF654 = test: Kirby-Bauer agar disk diffusion; set-up: Kirby-Bauer Disc Diffusion Test Results: unit not given here; details: for Kirby-Bauer Disc Diffusion Test Results: Table 5, beta-lactamase producing strain; for zone of inhibition at 20 µg/disc: Staphylococcus aureus, MRSA
Method in brief: as §1

MRSA USF655 = test: Kirby-Bauer agar disk diffusion; set-up: Kirby-Bauer Disc Diffusion Test Results: unit not given here; details: for Kirby-Bauer Disc Diffusion Test Results: Table 5; for zone of inhibition at 20 µg/disc: Staphylococcus aureus, MRSA
Method in brief: as §1

MRSA USF656 = test: Kirby-Bauer agar disk diffusion; set-up: Kirby-Bauer Disc Diffusion Test Results: unit not given here; details: for Kirby-Bauer Disc Diffusion Test Results: Table 5, beta-lactamase producing strain; for zone of inhibition at 20 µg/disc: Staphylococcus aureus, MRSA
Method in brief: as §1

MRSA USF657 = test: Kirby-Bauer agar disk diffusion; set-up: Kirby-Bauer Disc Diffusion Test Results: unit not given here; details: for Kirby-Bauer Disc Diffusion Test Results: Table 5, beta-lactamase producing strain; for zone of inhibition at 20 µg/disc: Staphylococcus aureus, MRSA
Method in brief: as §1

MRSA USF658 = test: Kirby-Bauer agar disk diffusion; set-up: Kirby-Bauer Disc Diffusion Test Results: unit not given here; details: for Kirby-Bauer Disc Diffusion Test Results: Table 5, beta-lactamase producing strain; for zone of inhibition at 20 µg/disc: Staphylococcus aureus, MRSA
Method in brief: as §1

MRSA USF659 = test: Kirby-Bauer agar disk diffusion; set-up: Kirby-Bauer Disc Diffusion Test Results: unit not given here; details: for Kirby-Bauer Disc Diffusion Test Results: Table 5, beta-lactamase producing strain; for zone of inhibition at 20 µg/disc: Staphylococcus aureus, MRSA
Method in brief: as §1

Staph aureus 525 = test: Kirby-Bauer agar disk diffusion; details: Table 5
[1] = test system: cultures of S. aureus and MRSA; test: electron microscopy of cell morphology
Text: The structure-bioactivity patterns observed for these N-thiolated lactams are highly atypical for a β-lactam antibiotic. The compounds are lipohilic and devoid of the typical acidic ring functionality required for recognition by the penicillin binding proteins. The implication that the lactams set forth in FIGS. 1A-1I are not acting in the same manner or on the same enzymes as the traditional β-lactam drugs is supported by electron microscopy experiments, which confirm that cell morphology is unaffected by the lactam of FIG. 1D (Greenwood, D. et al. Science, 1969, 163:1076).
(§2) In fact, only small isolated colonies of surviving cells can be found, all of which appear perfectly normal in size, shape, smoothness, and clustering behavior. […] Pulse radiolabeling experiments indicate that the lactam of FIG. 1D blocks the bacterial uptake of ^3H-uridine and ^3H-leucine at low (MIC) levels (Lim, D. V. et al. Microbiology, 1977, 33:328; Champney, W. S. and C. G. Tober Antimicrob. Agents and Chemother., 2000, 44:1413).
Light microscopy and scanning electron microscopy experiments have enabled us to look for cell wall damage in cultures of S. aureus and MRSA grown in the presence of N-methylthio lactam (FIG. 11F) over a range of different concentrations and cell growth conditions. […] Those cells that survive the treatment appear normal (coccal) and fully mature.

MRSA cells = test: light microscopy after Gram staining; details: for cells Gram-stained purple: Example 5, MRSA cells grown in presence of the substance
Text: as §2
(FIGS. 14A-14C) S. aureus is a Gram-positive microorganism, and thus reacts with Gram stain to produce a purple coloration due to binding of the stain to the peptidoglycan. 100% of MRSA cells grown either in the absence or presence of the lactam of FIG. 11F take on a purple color when Gram stained (top and center images, next page). In contrast, for MRSA cells treated with penicillin G or vancomycin (cell wall synthesis inhibitors), only about 30% of the cells are Gram-stained purple, with the remainder of the cells appearing pink (bottom image, next page) due to morphologically altered walls. This is strong evidence that the N-methylthio lactams are not affecting late stage events in cell wall biosynthesis.

[2] = read-out: The Zone of Inhibition

SMILES: COC1C(=O)N(SC)C1c1ccccc1Cl (racemic) [FIG. 11F]
- Kirby-Bauer Disc Diffusion Test Results (MRSA USF652): 30
- Kirby-Bauer Disc Diffusion Test Results (MRSA USF653): 30
- Kirby-Bauer Disc Diffusion Test Results (MRSA USF654): 26
- Kirby-Bauer Disc Diffusion Test Results (MRSA USF655): 26
- Kirby-Bauer Disc Diffusion Test Results (MRSA USF656): 26
- Kirby-Bauer Disc Diffusion Test Results (MRSA USF657): 28
- Kirby-Bauer Disc Diffusion Test Results (MRSA USF658): 28
- Kirby-Bauer Disc Diffusion Test Results (MRSA USF659): 27
- Kirby-Bauer Disc Diffusion Test Results (Staph aureus 525): 26
- cell counts ([1]; Example 5, cultures grown in the presence of the lactam): Highly reduced cell counts
- alterations in the shapes or sizes of remaining cells ([1]; Example 5, light and scanning electron microscopy, range of concentrations and growth conditions): in no cases have we found alterations in the shapes or sizes
- cells Gram-stained purple (MRSA cells): 100%

SMILES: CN[C@H](CC(C)C)C(=O)N[C@H]1C(=O)N[C@@H](CC(N)=O)C(=O)N[C@H]2C(=O)N[C@H]3C(=O)N[C@H](C(=O)N[C@H](C(=O)O)c4cc(O)cc(O)c4-c4cc3ccc4O)[C@H](O)c3ccc(c(Cl)c3)Oc3cc2cc(c3O[C@@H]2O[C@H](CO)[C@@H](O)[C@H](O)[C@H]2O[C@H]2C[C@](C)(N)[C@H](O)[C@H](C)O2)Oc2ccc(cc2Cl)[C@H]1O [Vancomycin, reference compound]
- zone of inhibition at 20 µg/disc (MRSA USF652; [2]): 23 mm
- zone of inhibition at 20 µg/disc (MRSA USF652; read-out: Zones of Inhibition): 19 mm
- Kirby-Bauer Disc Diffusion Test Results (MRSA USF652): 19
- zone of inhibition at 20 µg/disc (MRSA USF653; [2]): 20 mm
- zone of inhibition at 20 µg/disc (MRSA USF653; read-out: Zones of Inhibition): 18 mm
- Kirby-Bauer Disc Diffusion Test Results (MRSA USF653): 18
- zone of inhibition at 20 µg/disc (MRSA USF654; [2]): 20 mm
- zone of inhibition at 20 µg/disc (MRSA USF654; read-out: Zones of Inhibition): 19 mm
- Kirby-Bauer Disc Diffusion Test Results (MRSA USF654): 19
- zone of inhibition at 20 µg/disc (MRSA USF655; [2]): 19 mm
- zone of inhibition at 20 µg/disc (MRSA USF655; read-out: Zones of Inhibition): 19 mm
- Kirby-Bauer Disc Diffusion Test Results (MRSA USF655): 19
- zone of inhibition at 20 µg/disc (MRSA USF656; [2]): 20 mm
- zone of inhibition at 20 µg/disc (MRSA USF656; read-out: Zones of Inhibition): 21 mm
- Kirby-Bauer Disc Diffusion Test Results (MRSA USF656): 21
- zone of inhibition at 20 µg/disc (MRSA USF657; [2]): 21 mm
- zone of inhibition at 20 µg/disc (MRSA USF657; read-out: Zones of Inhibition): 18 mm
- Kirby-Bauer Disc Diffusion Test Results (MRSA USF657): 18
- zone of inhibition at 20 µg/disc (MRSA USF658; [2]): 20 mm
- zone of inhibition at 20 µg/disc (MRSA USF658; read-out: Zones of Inhibition): 18 mm
- Kirby-Bauer Disc Diffusion Test Results (MRSA USF658): 18
- zone of inhibition at 20 µg/disc (MRSA USF659; [2]): 20 mm
- zone of inhibition at 20 µg/disc (MRSA USF659; read-out: Zones of Inhibition): 18 mm
- Kirby-Bauer Disc Diffusion Test Results (MRSA USF659): 18
- cell morphology ([1]; Example 1, electron microscopy, high magnification): wrinkled, deformed, or even sheared
- coloration upon Gram staining (MRSA cells; Example 1): pink coloration
- cells Gram-stained purple (MRSA cells): about 30%
